Test results reported in US5677459A, “Methods for the preparation of modulators of acetylcholine receptors” (Sibia Neurosciences, Inc., priority 1995, dated 1997).
pIC50: −log10 of the molar value.

What was measured:
[1] = tested on: ^3 H-Norepinephrine release, rat thalamus slices; test: Ligand-stimulated ^3 H-norepinephrine release from rat thalamus slices; type: cell-based; settings: in vitro slices, 300 μM
[2] = tested on: rats with unilateral 6-hydroxydopamine lesions of the nigrostriatal dopamine pathway; type: in vivo, rat (male Sprague-Dawley); settings: 20 mg/kg, s.c., per one hour interval
Procedure: Selective lesions of the brain dopamine pathway using the neurotoxin 6-hydroxydopamine (6-OHDA) in rats can be used as an experimental approach to Parkinson's disease. Unilateral lesions of the nigrostriatal dopamine pathway induce a postural asymmetry which becomes manifested as rotation when the animals are activated by dopamine releasers or dopamine agonists. When amphetamine and other stimulant drugs that induce pre-synaptic release of dopamine from intact nerve terminals are administered, the rats rotate in a direction ipsilateral to the lesion. In contrast, when the rats are injected with post-synaptic dopamine receptor agonists, such as apomorphine, they turn in a contralateral direction, due to the development of supersensitive dopamine receptors in the lesioned side. Thus, the 6-OHDA model can be used to determine if a suspected dopaminergic agent is active, and to differentiate whether such action is pre- or post-synaptic.
The effects of invention compounds on rotational behavior in 6-hydroxydopamine denervated rats were evaluated using the procedure of Ungerstedt and Arbutknott, Brain Res. 24:485-493 (1970). Male Sprague-Dawley rats (Zivic Miller) weighing 170-200 gm were used in the 6-OHDA procedure. The ascending nigrostriatal dopamine pathway was lesioned by unilateral stereotaxic injection of 6-OHDA (8.0 μg) into one substantia nigra. All injections of 6-OHDA were preceded by desmethylimipramine (25 mg/kg i.p.) and pargyline (75 mg/kg i.p.) approximately 30 minutes prior to undergoing stereotaxic surgery for 6-OHDA infusion into the substantia nigra. After one week of recovery from surgery, the effectiveness of the lesions was verified by noting the response of the animals to apomorphine (0.2 mg/kg, s.c.). Only rats with a minimum rate of 80 contralateral turns per 30 minutes (a sign of more than 80-90% dopamine depletion after a 6-OHDA lesion) were used. Two weeks later, the selected rats were tested with invention and reference compounds using an automated rotometer system to record the number and direction of rotations. In order to distinguish spontaneous (non-specific)rotations from induced rotations (specific to the effect of the drug), each rat was used as its own control, employing the following procedure:
The rat was placed in the rotometer system for acclimatation for 15 minutes, the vehicle administered subcutaneously, the rat's rotations recorded for one hour, then test compound was administered s.c. and rotations again recorded for one hour. The number of ipsilateral rotations induced by vehicle was then compared to the number of ipsilateral rotations induced by test compound. Statistical analysis of the data was carried out using Student's t-test (paired).

[3] = biological target: muscarinic acetylcholine receptors; test: ^3 H-QNB (quinuclidinyl benzilate) binding/displacement, rat cerebral membranes; settings: ^3 H-QNB 60 pM, rat cerebral membranes
[4] = tested on: ^3 H-Norepinephrine release, rat hippocampus slices; test: Ligand-stimulated ^3 H-norepinephrine release from rat hippocampus slices; type: cell-based; settings: in vitro slices, 300 μM
[5] = tested on: ^3 H-Dopamine release, rat olfactory tubercles; test: Ligand-stimulated ^3 H-dopamine release from rat olfactory tubercles; type: cell-based; settings: in vitro slices, 300 μM
[6] = tested on: ^3 H-Norepinephrine release, rat prefrontal cortex slices; test: Ligand-stimulated ^3 H-norepinephrine release from rat prefrontal cortex slices; type: cell-based; settings: in vitro slices, 300 μM
Procedure: Measurement of ^3 H-dopamine release from rat striatal slices was performed according to the method of Sacaan et al. (J. Neurochem. 59:245 (1992)). Male Sprague-Dawley rats (250-300 g) were decapitated and the striata or olfactory tubercles dissected quickly on a cold glass surface. The tissue was chopped to a thickness of 300 μm with a McIlwain tissue chopper. After chopping again at right angles the tissue was dispersed and incubated for 10 min. at 37° C. in oxygenated Kreb's buffer. ^3 H-Dopamine (40 Ci/mmol, NEN- Dupont, Boston, Mass.) was added (50 nM) and the tissue was incubated for 30 min. in Kreb's buffer containing 10 μM pargyline and 0.5 mM ascorbic acid. Aliquots of the minced tissue were then transferred to chambers of a Brandel Superfusion system in which the tissue was supported on Whatman GF/B filter discs. The tissue was then superfused with buffer at a constant flow rate of 0.3 ml/min by means of a Brandel peristaltic pump. The perfusate was collected in plastic scintillation vials in 3-min fractions, and the radioactivity was estimated by scintillation spectrophotometry. The superfusate for the first 120 min was discarded. After two baseline fractions had been collected, the superfusion buffer was switched to fresh buffer with or without compound of interest. At the end of the experiment the filter and the tissue were removed, and the radiolabeled neurotransmitter content was estimated after extraction into scintillation fluid. The fractional efflux of radiolabeled neurotransmitter was estimated as the amount of radioactivity in the perfusate fraction relative to the total amount in the tissue.
Following essentially the same procedure as set forth above, the amount of ^3 H-norepinephrine released from rat hippocampus, thalamus and prefrontal cortex slices superfused with buffer containing (or lacking) compounds of interest was also measured.
Results of studies of the effects of an invention compound (as compared to the effect of nicotine) on the release of neurotransmitters from rat brain slices are presented in Table II. Results presented in Part A of the Table are expressed as the percent fractional release and results presented in Part B of the Table are expressed as a percentage, relative to nicotine response.

SMILES: C#Cc1cncc(C2CCCN2C)c1.O=C(O)/C=C/C(=O)O (racemic) [R^5 = ethynyl (racemic), 5-Ethynyl-3-(1-methyl-2-pyrrolidinyl)pyridine fumarate]
- percent fractional release, ^3 H-Norepinephrine, Thalamus [1]: 0.31%
- Percent change from control (ipsilateral rotations) [2]: +406%
- pIC50 [3]: 5.00
- percent fractional release, ^3 H-Norepinephrine, Hippocampus [4]: 0.69%
- percent fractional release, ^3 H-Dopamine, Olfactory Tubercles [5]: 6.68%
- percent fractional release, ^3 H-Norepinephrine, Prefrontal Cortex [6]: 0.97%

SMILES: CN1CCCC1c1cncc(-c2ccc(O)c(Cl)c2)c1.O=C(O)/C=C/C(=O)O (stereo not drawn) [R^5 = 3-chloro-4-hydroxyphenyl, 5-(4-hydroxy-3-chlorophenyl)-3-(1-methyl-2-pyrrolidinyl)pyridine fumarate]
- percent fractional release, ^3 H-Norepinephrine, Thalamus [1]: 3.23%
- Percent change from control (ipsilateral rotations) [2]: -40%
- pIC50 [3]: < 5.00
- percent fractional release, ^3 H-Norepinephrine, Hippocampus [4]: 2.5%
- percent fractional release, ^3 H-Dopamine, Olfactory Tubercles [5]: 11.4%
- percent fractional release, ^3 H-Norepinephrine, Prefrontal Cortex [6]: 2.94%

SMILES: CN1CCCC1c1cncc(-c2cccc(Cl)c2)c1.O=C(O)/C=C/C(=O)O (stereo not drawn) [R^5 = 3-chlorophenyl, 5-(3-Chlorophenyl)-3-(1-methyl-2-pyrrolidinyl) pyridine fumarate]
- percent fractional release, ^3 H-Norepinephrine, Thalamus [1]: 1.48%
- Percent change from control (ipsilateral rotations) [2]: +62%
- pIC50 [3]: 5.43
- percent fractional release, ^3 H-Norepinephrine, Hippocampus [4]: 1.45%
- percent fractional release, ^3 H-Dopamine, Olfactory Tubercles [5]: 3.25%
- percent fractional release, ^3 H-Norepinephrine, Prefrontal Cortex [6]: 1.7%

SMILES: COc1ccc(-c2cncc(C3CCCN3C)c2)cc1F.O=C(O)/C=C/C(=O)O (stereo not drawn) [R^5 = 3-fluoro-4-methoxyphenyl, 5-(3-Fluoro-4-methoxyphenyl)-3-(1-methyl-2-pyrrolidinyl)pyridine fumarate]
- percent fractional release, ^3 H-Norepinephrine, Thalamus [1]: 1.75%
- Percent change from control (ipsilateral rotations) [2]: -3%
- pIC50 [3]: 4.52
- percent fractional release, ^3 H-Norepinephrine, Hippocampus [4]: 0.73%
- percent fractional release, ^3 H-Dopamine, Olfactory Tubercles [5]: 2.3%
- percent fractional release, ^3 H-Norepinephrine, Prefrontal Cortex [6]: 2.0%
